Measurements: ChEMBL document CHEMBL1121420, “Preparation and antitumor activity of olivomycin A analogues” (1980)

Key:
Mus musculus [1] = assay: Average change in weight is tested in mice at a dose of 2 mg/kg; assay type: functional; parameters: unit not given here
Mus musculus [2] = assay: Average change in weight is tested in mice at a dose of 8 mg/kg; assay type: functional; parameters: unit not given here
P388 [3] = assay: Tested on P-388 Leukemia for median survival time treated to median survival time control when administered intraperitoneally at a dose of 16 mg/kg; assay type: functional, Mus musculus; conditions: route intraperitoneal
P388 [4] = assay: Tested on P-388 Leukemia for median survival time treated to median survival time control when administered intraperitoneally at a dose of 2 mg/kg; assay type: functional, Mus musculus; conditions: route intraperitoneal
P388 [5] = assay: Tested on P-388 Leukemia for median survival time treated to median survival time control when administered intraperitoneally at a dose of 4 mg/kg; assay type: functional, Mus musculus; conditions: route intraperitoneal
P388 [6] = assay: Tested on P-388 Leukemia for median survival time treated to median survival time control when administered intraperitoneally at a dose of 8 mg/kg; assay type: functional, Mus musculus; conditions: route intraperitoneal
Mus musculus [7] = assay: Average change in weight is tested in mice at a dose of 16 mg/kg; assay type: functional; parameters: unit not given here
Mus musculus [8] = assay: Average change in weight is tested in mice at a dose of 4 mg/kg; assay type: functional; parameters: unit not given here
Mus musculus [9] = assay: Average change in weight is tested in mice at a dose of 1 mg/kg; assay type: functional; parameters: unit not given here
Mus musculus [10] = assay: Average change in weight is tested in mice at a dose of 8 mg/kg; Toxic; assay type: functional, organism-based; parameters: dose 8 mg/kg
P388 [11] = assay: Tested on P-388 Leukemia for median survival time treated to median survival time control when administered intraperitoneally at a dose of 1 mg/kg; assay type: functional, Mus musculus; conditions: route intraperitoneal
P388 [12] = assay: Tested on P-388 Leukemia for median survival time treated to median survival time control when administered intraperitoneally at a dose of 8 mg/kg; Toxic; assay type: functional, organism-based; parameters: dose 8 mg/kg; conditions: Mus musculus
Mus musculus [13] = assay: Average change in weight is tested in mice at a dose of 0.25 mg/kg; assay type: functional
Mus musculus [14] = assay: Average change in weight is tested in mice at a dose of 0.5 mg/kg; assay type: functional
P388 [15] = assay: Tested on P-388 Leukemia for median survival time treated to median survival time control when administered intraperitoneally at a dose of 0.25 mg/kg; assay type: functional, Mus musculus; conditions: route intraperitoneal
P388 [16] = assay: Tested on P-388 Leukemia for median survival time treated to median survival time control when administered intraperitoneally at a dose of 0.5 mg/kg; assay type: functional, Mus musculus; conditions: route intraperitoneal
Mus musculus [17] = assay: Average change in weight is tested in mice at a dose of 4 mg/kg; Toxic; assay type: functional, organism-based; parameters: dose 4 mg/kg
P388 [18] = assay: Tested on P-388 Leukemia for median survival time treated to median survival time control when administered intraperitoneally at a dose of 4 mg/kg; Toxic; assay type: functional, organism-based; parameters: dose 4 mg/kg; conditions: Mus musculus

| SMILES | Activity (Mus musculus [1]) | Activity (Mus musculus [2]) | T/C (P388 [3]) [%] | T/C (P388 [4]) [%] | T/C (P388 [5]) [%] | T/C (P388 [6]) [%] | Activity (Mus musculus [7]) | Activity (Mus musculus [8]) | Activity (Mus musculus [9]) | Activity (Mus musculus [10]) | T/C (P388 [11]) [%] | T/C (P388 [12]) | Activity (Mus musculus [13]) | Activity (Mus musculus [14]) | T/C (P388 [15]) [%] | T/C (P388 [16]) [%] | Activity (Mus musculus [17]) | T/C (P388 [18]) |
| --- | --- | --- | --- | --- | --- | --- | --- | --- | --- | --- | --- | --- | --- | --- | --- | --- | --- | --- |
| COC(/C(=N/NC(N)=O)C(O)C(C)O)C1Cc2cc3cc(OC4CC(OC(C)=O)C(OC5CC(O)C(OC)C(C)O5)C(C)O4)cc(O)c3c(O)c2C(=O)C1OC1CC(OC2CC(OC3CC(C)(O)C(OC(=O)C(C)C)C(C)O3)C(O)C(C)O2)C(O)C(C)O1 (centres undefined) | 1.8 | 1.2 | 105 | 85 | 110 | 110 | -2.3 | 1.3 |  |  |  |  |  |  |  |  |  |  |
| C/N=C(\C(O)C(C)O)C(OC)C1Cc2cc3cc(OC4CC(OC(C)=O)C(OC5CC(O)C(OC)C(C)O5)C(C)O4)cc(O)c3c(O)c2C(=O)C1OC1CC(OC2CC(OC3CC(C)(O)C(OC(=O)C(C)C)C(C)O3)C(O)C(C)O2)C(O)C(C)O1 (centres undefined) | 0.1 |  |  | 140 | 155 |  |  | 2.4 | 1.1 | Toxic | 122 | Toxic |  |  |  |  |  |  |
| COC(C(=O)C(O)C(C)O)C1Cc2cc3cc(OC4CC(OC(C)=O)C(OC5CC(O)C(OC)C(C)O5)C(C)O4)c([N+](=O)[O-])c(O)c3c(O)c2C(=O)C1OC1CC(OC2CC(OC3CC(C)(O)C(OC(=O)C(C)C)C(C)O3)C(O)C(C)O2)C(O)C(C)O1 (centres undefined) | 2.8 | 3.5 | 100 | 100 | 110 | 100 | 2.4 | 2 |  |  |  |  |  |  |  |  |  |  |
| CO/N=C(\C(O)C(C)O)C(OC)C1Cc2cc3cc(OC4CC(OC(C)=O)C(OC5CC(O)C(OC)C(C)O5)C(C)O4)cc(O)c3c(O)c2C(=O)C1OC1CC(OC2CC(OC3CC(C)(O)C(OC(=O)C(C)C)C(C)O3)C(O)C(C)O2)C(O)C(C)O1 (centres undefined) | 0.3 | 2.8 |  | 167 | 156 | 144 |  | 1.3 | 0.9 |  | 144 |  | 1.3 | 0.8 | 128 | 156 |  |  |
| COC(C(=O)C1OC2(CCCCC2)OC1C)C1Cc2cc3cc(OC4CC(OC(C)=O)C(OC5CC(O)C(OC)C(C)O5)C(C)O4)cc(O)c3c(O)c2C(=O)C1OC1CC(OC2CC(OC3CC(C)(O)C(OC(=O)C(C)C)C(C)O3)C(O)C(C)O2)C(O)C(C)O1 (centres undefined) | 1 | 0.2 | 100 | 111 | 100 | 139 | 0.7 | 0 |  |  |  |  |  |  |  |  |  |  |
| COC1C(O)CC(OC2C(C)OC(Oc3cc(O)c4c(O)c5c(cc4c3)CC(C(OC)C(O)C(O)C(C)O)C(OC3CC(OC4CC(OC6CC(C)(O)C(OC(=O)C(C)C)C(C)O6)C(O)C(C)O4)C(O)C(C)O3)C5=O)CC2OC(C)=O)OC1C (centres undefined) | 1.1 | 0.2 | 130 | 90 | 125 | 140 | 0.9 | 0.2 |  |  |  |  |  |  |  |  |  |  |
| COc1cc(OC2CC(OC(C)=O)C(OC3CC(O)C(OC)C(C)O3)C(C)O2)cc2cc3c(c(OC)c12)C(=O)C(OC1CC(OC2CC(OC4CC(C)(O)C(OC(=O)C(C)C)C(C)O4)C(O)C(C)O2)C(O)C(C)O1)C(C(OC)C(=O)C(O)C(C)O)C3 (centres undefined) | 0.3 | 0.4 | 140 | 115 | 130 | 155 | 0.9 | 0.2 |  |  |  |  |  |  |  |  |  |  |
| C/N=C(\C(O)C(C)O)C(OC)C1Cc2cc3cc(OC4CC(OC(C)=O)C(OC5CC(O)C(OC)C(C)O5)C(C)O4)cc(O)c3c(O)c2CC1OC1CC(OC2CC(OC3CC(C)(O)C(OC(=O)C(C)C)C(C)O3)C(O)C(C)O2)C(O)C(C)O1 (centres undefined) | -0.3 | -3.3 |  | 140 | 110 | 115 |  | 0.4 | 0.3 |  | 125 |  |  |  |  |  |  |  |
| COC(C(=O)C1OC(C)(C)OC1C)C1Cc2cc3cc(OC4CC(OC(C)=O)C(OC5CC(O)C(OC)C(C)O5)C(C)O4)cc(O)c3c(O)c2C(=O)C1OC1CC(OC2CC(OC3CC(C)(O)C(OC(=O)C(C)C)C(C)O3)C(O)C(C)O2)C(O)C(C)O1 (centres undefined) | 0.6 | 0.8 | 167 | 117 | 139 | 156 | 1.3 | 0.3 |  |  |  |  |  |  |  |  |  |  |
| COC1C(O)CC(OC2C(C)OC(Oc3cc(O)c4c(O)c5c(cc4c3)CC(C(OC)C(O)C(O)C(C)O)C(OC3CC(OC4CC(OC6CC(C)(O)C(OC(=O)C(C)C)C(C)O6)C(O)C(C)O4)C(O)C(C)O3)C5)CC2OC(C)=O)OC1C (centres undefined) | 5.3 | 3.5 | 139 | 100 | 100 | 106 | 0.5 | 3.7 |  |  |  |  |  |  |  |  |  |  |
| COC(C(=O)C(O)C(C)O)C1Cc2cc3cc(OC4CC(OC(C)=O)C(OC5CC(O)C(OC)C(C)O5)C(C)O4)c(Br)c(O)c3c(O)c2C(=O)C1OC1CC(OC2CC(OC3CC(C)(O)C(OC(=O)C(C)C)C(C)O3)C(O)C(C)O2)C(O)C(C)O1 (centres undefined) | 0.3 | 0.1 | 130 | 110 | 120 | 150 | 0.1 | 1.2 |  |  |  |  |  |  |  |  |  |  |
| COC(/C(=N/O)C(O)C(C)O)C1Cc2cc3cc(OC4CC(OC(C)=O)C(OC5CC(O)C(OC)C(C)O5)C(C)O4)cc(O)c3c(O)c2C(=O)C1OC1CC(OC2CC(OC3CC(C)(O)C(OC(=O)C(C)C)C(C)O3)C(O)C(C)O2)C(O)C(C)O1 (centres undefined) | 1.3 | 0.8 |  | 155 |  |  |  | 0.8 |  |  | 100 |  |  |  |  | 100 | Toxic | Toxic |
| COC(C(=O)C(O)C(C)O)C1Cc2cc3cc(OC4CC(OC(C)=O)C(OC5CC(O)C(OC)C(C)O5)C(C)O4)cc(O)c3c(O)c2C(=O)C1OC1CC(OC2CC(OC3CC(C)(O)C(OC(=O)C(C)C)C(C)O3)C(O)C(C)O2)C(O)C(C)O1 (centres undefined) | 0 |  |  | 146 | 157 |  |  | 0.4 | 0.3 |  | 130 |  |  | 1 |  | 114 |  |  |
| COc1cc(OC2CC(OC(C)=O)C(OC3CC(O)C(OC)C(C)O3)C(C)O2)cc2cc3c(c(O)c12)C(=O)C(OC1CC(OC2CC(OC4CC(C)(O)C(OC(=O)C(C)C)C(C)O4)C(O)C(C)O2)C(O)C(C)O1)C(C(OC)C(=O)C(O)C(C)O)C3 (centres undefined) | 0.7 |  |  | 156 | 156 |  |  | 1.3 | 1.3 |  | 144 |  | 1.3 | 1.3 | 106 | 133 |  |  |
| COC(/C(=N/Nc1ccccc1)C(O)C(C)O)C1Cc2cc3cc(OC4CC(OC(C)=O)C(OC5CC(O)C(OC)C(C)O5)C(C)O4)cc(O)c3c(O)c2C(=O)C1OC1CC(OC2CC(OC3CC(C)(O)C(OC(=O)C(C)C)C(C)O3)C(O)C(C)O2)C(O)C(C)O1 (centres undefined) | 0.2 | 0.5 | 140 | 120 | 120 | 140 | 1.3 | 0.5 |  |  |  |  |  |  |  |  |  |  |
| COC(C(=O)C(O)C(C)O)C1Cc2cc3cc(OC4CC(OC(C)=O)C(OC5CC(O)C(OC)C(C)O5)C(C)O4)cc(O)c3c(O)c2CC1OC1CC(OC2CC(OC3CC(C)(O)C(OC(=O)C(C)C)C(C)O3)C(O)C(C)O2)C(O)C(C)O1 (centres undefined) | 0.7 | 1 |  | 150 | 140 | 150 |  | 0.7 | 1.1 |  | 110 |  |  |  |  |  |  |  |
